Tests used:
[1] = test system: Stellaria media, Amaranthus retroflexus, Sinapis avreuse, Avena fatura, Lolium multiflorum and Setaria viridis; test: Post-emergence action against weeds (greenhouse pot test, visual rating); format: in vivo; settings: three-leaf stage, application rate of 3.0 kg or less of active substance per hectare, 3 to 4 weeks in greenhouse
Method: Seeds of mono- and dicotyledonous weeds are placed in sandy loam soil in cardboard pots, covered with soil and cultivated in a greenhouse under good growth conditions. Two to three weeks after sowing, the test plants are treated at the three-leaf stage. The novel compounds, formulated as wettable powders or emulsion concentrates, are sprayed in various dosages onto the green parts of the plant at an application rate of from 600 to 8001 of water/ha (converted), and, after the test plants have remained in the greenhouse for 3 to 4 weeks under optimum growth conditions, the action of the preparations is rated visually by comparison with untreated controls. The novel compositions also have good post-emergence herbicidal activity against a broad spectrum of economically important weed grasses and broad-leaved weeds.

[2] = test system: Stellaria media, Amaranthus retroflexus, Sinapis avreuse, Avena fatura, Lolium multiflorum and Setaria viridis; test: Pre-emergence action against weeds (greenhouse pot test, visual rating); format: in vivo; settings: application rate of 3.0 kg or less of active substance per hectare, trial period of 3 to 4 weeks
Excerpt: Seeds of mono- and dicotyledonous weed plants are placed in sandy loam soil in cardboard pots and covered with soil. The novel compounds, formulated as wettable powders or emulsion concentrates, are then applied to the surface of the soil cover in the form of an aqueous suspension or emulsion at an application rate of from 600 to 800 l of water/ha (converted), in various dosages. After the treatment, the pots are placed in a greenhouse and kept under good growth conditions for the weeds. After the test plants have emerged after a trial period of 3 to 4 weeks, the damage to the plants or the negative effect on emergence is rated visually by comparison with untreated controls. As shown by the test results, the novel compounds have good herbicidal pre-emergence activity against a broad spectrum of weed grasses and broad-leaved weeds.

SMILES	herbicidal activity post-emergence (rated visually) [1]	herbicidal activity pre-emergence (damage to the plants or negative effect on emergence, rated visually) [2]
CCC(COCCOc1ccccc1)Nc1nc(N)nc(C(C)F)n1 (stereo not drawn) [Example 1346]	good and in most cases very good herbicidal activity	good and in most cases very good herbicidal activity
Cc1cccc(CNC(=O)C(C)Nc2nc(N)nc(C(C)C)n2)c1 (stereo not drawn) [Example 1005]	good and in most cases very good herbicidal activity	good and in most cases very good herbicidal activity
CC(C)c1nc(N)nc(NCC=NOCc2ccccc2)n1 [Example 1253]	good and in most cases very good herbicidal activity	good and in most cases very good herbicidal activity
CCC(COCCOc1ccccc1)Nc1nc(N)nc(C(C)(C)F)n1 (stereo not drawn) [Example 1344]	good and in most cases very good herbicidal activity	good and in most cases very good herbicidal activity
CC(C)c1nc(N)nc(NCC(=O)NCc2ccccc2)n1 [Example 987]	good and in most cases very good herbicidal activity	good and in most cases very good herbicidal activity
CC(C)c1nc(N)nc(NC(CCCOc2ccccc2)C2CC2)n1 (stereo not drawn) [Example 554]	good and in most cases very good herbicidal activity	good and in most cases very good herbicidal activity
CCc1nc(N)nc(NCC=NOCc2cc(C)cc(C)c2)n1 [Example 1235]	good and in most cases very good herbicidal activity	good and in most cases very good herbicidal activity
CC(C)(F)c1nc(N)nc(NC2CCCCC2COc2ccccc2)n1 (stereo not drawn) [Example 869]	good and in most cases very good herbicidal activity	good and in most cases very good herbicidal activity
Cc1cccc(OCCCC(C)Nc2nc(N)nc(C(C)F)n2)c1 (stereo not drawn) [Example 532]	good and in most cases very good herbicidal activity	good and in most cases very good herbicidal activity
CC(F)c1nc(N)nc(NCC=NOCc2ccccc2)n1 (stereo not drawn) [Example 1307]	good and in most cases very good herbicidal activity	good and in most cases very good herbicidal activity
CCC(CCCOc1cccc(C)c1)Nc1nc(N)nc(C(C)C)n1 (stereo not drawn) [Example 553]	good and in most cases very good herbicidal activity	good and in most cases very good herbicidal activity
CC(C)(F)c1nc(N)nc(NC(CCCCOc2ccccc2)C2CC2)n1 (stereo not drawn) [Example 636]	good and in most cases very good herbicidal activity	good and in most cases very good herbicidal activity
CC(F)c1nc(N)nc(NC2CCCCC2COc2ccccc2)n1 (stereo not drawn) [Example 870]	good and in most cases very good herbicidal activity	good and in most cases very good herbicidal activity
CC(F)c1nc(N)nc(NCC(=O)NCc2ccccc2)n1 (stereo not drawn) [Example 930]	good and in most cases very good herbicidal activity	good and in most cases very good herbicidal activity
Nc1nc(NC(CCCCOc2ccccc2)C2CC2)nc(C(F)(F)C(F)F)n1 (stereo not drawn) [Example 645]	good and in most cases very good herbicidal activity	good and in most cases very good herbicidal activity
